The test system of this test is BDF1 mice, P388 leukemia ip, median survival T/C. Nature of the test: NCI In Vivo Anticancer Drug Screen. Data for tumor model P388 Leukemia (intraperitoneal) in B6D2F1 (BDF1) mice. The conditions noted are these: endpoint: median survival time, higher = longer survival. An outline of the steps: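 Read-out is survival of treated animals expressed relative to the vehicle group, as a T/C ratio.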

Where [1] appears, read: dose: 100.0 mg/kg/injection, schedule: Q04DX003 (ip), vehicle: Klucel (hydroxypropylcellulose) (HPC).
The mark [2] stands for this setting: dose: 200.0 mg/kg/injection, schedule: Q04DX003 (ip), vehicle: Klucel (hydroxypropylcellulose) (HPC).
Setting [3] is: dose: 400.0 mg/kg/injection, schedule: Q04DX003 (ip), vehicle: Klucel (hydroxypropylcellulose) (HPC).
Where [4] appears, read: dose: 50.0 mg/kg/injection, schedule: Q01DX009 (ip), vehicle: saline with Tween-80.
[5] abbreviates: dose: 100.0 mg/kg/injection, schedule: Q01DX009 (ip), vehicle: saline with Tween-80.
The mark [6] stands for this setting: dose: 200.0 mg/kg/injection, schedule: Q01DX009 (ip), vehicle: saline with Tween-80.
The mark [7] stands for this setting: dose: 100.0 mg/kg/injection, schedule: Q04DX003 (ip), vehicle: saline with Tween-80.
[8] abbreviates: dose: 200.0 mg/kg/injection, schedule: Q04DX003 (ip), vehicle: saline with Tween-80.
The mark [9] stands for this setting: dose: 12.5 mg/kg/injection, schedule: Q01DX009 (ip), vehicle: saline with Tween-80.
[10] abbreviates: dose: 25.0 mg/kg/injection, schedule: Q01DX009 (ip), vehicle: saline with Tween-80.
Where [11] appears, read: dose: 50.0 mg/kg/injection, schedule: Q04DX003 (ip), vehicle: saline with Tween-80.
Where [12] appears, read: dose: 100.0 mg/kg/injection, schedule: Q04DX003 (ip), vehicle: saline.

Structures are written as SMILES. Several values for one entry are separate records, joined by “and”; a condition that tells them apart may be missing. Equal values may be shown once. Toxic doses and inconclusive results are not listed.

Regarding `O=C(Cc1ccccc1)OCCc1ccccc1`, the T/C is 109 % of control (dose: 12.5 mg/kg/injection, schedule: Q01DX009 (ip), vehicle: Klucel (hydroxypropylcellulose) (HPC)); 109 % of control (dose: 25.0 mg/kg/injection, schedule: Q01DX009 (ip), vehicle: Klucel (hydroxypropylcellulose) (HPC)); 95 % of control (dose: 50.0 mg/kg/injection, schedule: Q01DX009 (ip), vehicle: Klucel (hydroxypropylcellulose) (HPC)); 109 % of control under setting [1]; 100 % of control under setting [2]; 100 % of control under setting [3].
Turning to `CCCCCCC(=O)/C=C/c1cccc(O)c1`, the T/C runs as follows: under setting [4], 104 % of control; under setting [5], 104 % of control; under setting [6], 95 % of control.
As for `Cc1ccc(C2(C#N)CC2)cc1`, the T/C is, setting by setting: under setting [5], 108 % of control; under setting [7], 100 % of control; under setting [6], 112 % of control; under setting [8], 108 % of control; (dose: 400.0 mg/kg/injection, schedule: Q01DX009 (ip), vehicle: saline with Tween-80) 116 % of control; (dose: 400.0 mg/kg/injection, schedule: Q04DX003 (ip), vehicle: saline with Tween-80) 116 % of control.
In the case of `CC(NCCCSc1ccccc1)C(O)c1ccc(O)cc1` (centres undefined), the T/C under setting [4] was 99 % of control and 100 % of control and 105 % of control; the T/C under setting [5] was 110 % of control and 114 % of control and 119 % of control.
With `C/C(=N\N)c1ccc(Cl)cc1`, the T/C reads like this: (dose: 6.25 mg/kg/injection, schedule: Q01DX009 (ip), vehicle: saline with Tween-80) 100 % of control; under setting [9], 104 % of control; under setting [10], 95 % of control.
Take `COc1ccccc1C(=O)C(O)c1ccccc1OC` (centres undefined): the T/C is, setting by setting: under setting [1], 95 % of control; under setting [2], 104 % of control; under setting [3], 108 % of control.
In the case of `O=NN(CCCl)C(=O)Nc1c[nH]c(=O)[nH]c1=O`, the T/C by setting is: (dose: 0.08 mg/kg/injection, schedule: Q04DX003 (ip), vehicle: saline with Tween-80) 155 % of control; (dose: 0.09 mg/kg/injection, schedule: Q04DX003 (ip), vehicle: saline with Tween-80) 100 % of control; (dose: 0.15 mg/kg/injection, schedule: Q04DX003 (ip), vehicle: saline with Tween-80) 180 % of control; (dose: 0.3 mg/kg/injection, schedule: Q04DX003 (ip), vehicle: saline with Tween-80) 185 % of control; (dose: 0.78 mg/kg/injection, schedule: Q04DX003 (ip), vehicle: saline with Tween-80) 175 % of control; (dose: 1.56 mg/kg/injection, schedule: Q04DX003 (ip), vehicle: saline with Tween-80) 154 % of control. The T/C was 186 % of control (dose: 2.4 mg/kg/injection, schedule: Q01DX009 (ip), vehicle: saline with Tween-80); 213 % of control (dose: 3.12 mg/kg/injection, schedule: Q04DX003 (ip), vehicle: saline with Tween-80); 201 % of control (dose: 3.6 mg/kg/injection, schedule: Q01DX009 (ip), vehicle: saline with Tween-80); 195 % of control (dose: 4.0 mg/kg/injection, schedule: Q01DX009 (ip), vehicle: saline with Tween-80); 193 % of control (dose: 5.5 mg/kg/injection, schedule: Q01DX009 (ip), vehicle: saline with Tween-80); 229 % of control (dose: 6.0 mg/kg/injection, schedule: Q01DX009 (ip), vehicle: saline with Tween-80). In addition, the T/C is, setting by setting: (dose: 6.25 mg/kg/injection, schedule: Q04DX003 (ip), vehicle: saline with Tween-80) 190 % of control; (dose: 8.0 mg/kg/injection, schedule: Q01DX009 (ip), vehicle: saline with Tween-80) 220 % of control; (dose: 8.0 mg/kg/injection, schedule: Q04DX003 (ip), vehicle: saline with Tween-80) 204 % of control; (dose: 9.0 mg/kg/injection, schedule: Q01DX009 (ip), vehicle: saline with Tween-80) 120 % of control; (dose: 12.0 mg/kg/injection, schedule: Q01DX009 (ip), vehicle: saline with Tween-80) 250 % of control; (dose: 12.0 mg/kg/injection, schedule: Q04DX003 (ip), vehicle: saline with Tween-80) 204 % of control. The T/C runs as follows: under setting [9], 250 % of control; (dose: 12.5 mg/kg/injection, schedule: Q04DX003 (ip), vehicle: saline with Tween-80) 230 % of control; (dose: 18.0 mg/kg/injection, schedule: Q01DX009 (ip), vehicle: saline with Tween-80) 104 % of control; (dose: 18.0 mg/kg/injection, schedule: Q04DX003 (ip), vehicle: saline with Tween-80) 227 % of control; under setting [10], 100 % of control; (dose: 25.0 mg/kg/injection, schedule: Q04DX003 (ip), vehicle: saline with Tween-80) 230 % of control. Also, under setting [11], the T/C is 230 % of control.
Turning to `O=[N+]([O-])c1ccc(N2CCCC2)c2c1no[n+]2[O-]`, the T/C by setting is: under setting [11], 101 % of control; under setting [7], 101 % of control; under setting [8], 108 % of control.
Regarding `O=C(CCCCl)CC(O)(C(F)(F)F)C(F)(F)F`, the T/C under setting [9] is 95 % of control, the T/C under setting [10] is 100 % of control, the T/C under setting [4] was 115 % of control and the T/C under setting [5] is 104 % of control.
`CCOP(=O)(N1CC1(C)C)N1CC1(C)C` (centres undefined): the T/C reads like this: (dose: 50.0 mg/kg/injection, schedule: Q04DX003 (ip), vehicle: alcohol) 110 % of control; (dose: 66.0 mg/kg/injection, schedule: Q04DX003 (ip), vehicle: saline) 280 % of control and 172 % of control; under setting [12], 272 % of control and 300 % of control; (dose: 150.0 mg/kg/injection, schedule: Q04DX003 (ip), vehicle: saline) 272 % of control and 95 % of control.
For `CCCN1c2c(nc(N)[nH]c2=O)NCC1CNc1ccc(C(=O)NC(CCC(=O)O)C(=O)O)cc1` (centres undefined), the T/C is 108 % of control (dose: 100.0 mg/kg/injection, schedule: Q01DX009 (ip), vehicle: saline); 112 % of control under setting [12]; 100 % of control (dose: 200.0 mg/kg/injection, schedule: Q01DX009 (ip), vehicle: saline); 100 % of control (dose: 200.0 mg/kg/injection, schedule: Q04DX003 (ip), vehicle: saline); 110 % of control (dose: 400.0 mg/kg/injection, schedule: Q01DX009 (ip), vehicle: saline); 91 % of control (dose: 400.0 mg/kg/injection, schedule: Q04DX003 (ip), vehicle: saline).
With `CCOC(=O)C(=O)C[n+]1cc2ccccc2cc1/C=N/O`, the T/C by setting is: (dose: 50.0 mg/kg/injection, schedule: Q01DX001 (ip), vehicle: saline) 100 % of control; (dose: 100.0 mg/kg/injection, schedule: Q01DX001 (ip), vehicle: saline) 100 % of control; (dose: 200.0 mg/kg/injection, schedule: Q01DX001 (ip), vehicle: saline) 100 % of control.
For the molecule `O=C(O)CCC(=O)c1cccc2ccccc12`, the T/C is 100 % of control (dose: 50.0 mg/kg/injection, schedule: Q01DX001 (ip), vehicle: other); 104 % of control (dose: 50.0 mg/kg/injection, schedule: Q04DX003 (ip), vehicle: Klucel (hydroxypropylcellulose) (HPC)); 90 % of control (dose: 100.0 mg/kg/injection, schedule: Q01DX001 (ip), vehicle: other); 100 % of control under setting [1]; 100 % of control (dose: 200.0 mg/kg/injection, schedule: Q01DX001 (ip), vehicle: other); 113 % of control under setting [2].
Turning to `CC(C)(C)CC(Cl)Cl`, the T/C (dose: 75.0 mg/kg/injection, schedule: Q01DX009 (ip), vehicle: Klucel (hydroxypropylcellulose) (HPC)) is 100 % of control; the T/C under setting [1] was 100 % of control; the T/C (dose: 150.0 mg/kg/injection, schedule: Q01DX009 (ip), vehicle: Klucel (hydroxypropylcellulose) (HPC)) is 100 % of control; the T/C under setting [2] is 100 % of control; the T/C under setting [3] was 107 % of control.

(Values after PubChem BioAssay AID328 (DTP/NCI, 2004).)
